“Also recorded” adds a separate entry of the source.
Columns and labels:
[1] = Military recruits, 12 weeks training, randomised Losartan or placebo; format: in vivo, human; conditions: after 12 weeks training
From the text: Ninety military recruits were studied before and after military training of 12 weeks duration. These were randomised to receive the AT1-receptor antagonist Losartan or placebo.

[2] = human skeletal muscle; cited from earlier work
[3] = Cachectic CHF patients treated with Losartan: clinical status, body composition, strength, treadmill; format: in vivo, human
Description: Patient 1 had cachexia due to chronic heart failure (CHF) (person, weight 50.0 kg, height 178 cm, previous weight loss 15.3 kg in 3 years=chronic weight loss). Patient 2 had CHF and a muscle myopathy suffering from idiopathic cachexia (person, weight 62 kg, height 180 cm, previous weight loss 11 kg in year=recent weight loss). Each was treated with Losartan (50 mg once daily). Clinical status and parameters of body composition, strength and treadmill exercise capacity were studies, at baseline and during follow-up. Both patients had evidence of CHF with impaired exercise capacity and impaired left ventricular function (LVEF<40%).
Bioelectrical impedance analysis (patient 1 and 2) was performed in the erect position using a body fat analyser (TANITA TBF-305, Tanita Corporation, Illinois, USA). Lean and fat mass were automatically analysed based on equations supplied and programmed into the machine by the manufacturer. These equations are based upon a comparison with measurements in a health population.
Dual energy X-ray absorptiometry (DEXA) (patient 1): Whole body DEXA-scans were performed using a Lunar model DPXIQ total body scanner (Lunar Radiation Company, Madison, Wisc., USA, Lunar system software version 4.3c). The subject was at each time point scanned rectilinearly from head to toe. A scan takes less than 20 min. The mean radiation dose per scan is reported to be about 0.75 μSv (53), about 1/50th of a normal chest X-ray. The DEXA method can be used to obtain from body density analyses values of fat tissue mass, lean tissue mass. The technical details of DEXA, performance and segment demarcation have been described (54,55). The error of lean tissue measurements is […] and of fat tissue measurements <5% (56).
Treadmill exercise test (Patients 1 and 2): The patients underwent symptom limited treadmill exercise testing. A standard Bruce protocol with the addition of a “stage 0” consisting of 3 min at a speed of 1 mile per hour with a 5% gradient was used. The patients breathed through a one-way valve connected to a respiratory mass spectrometer (Amis 2000, Odense, Denmark) and minute ventilation, oxygen consumption and carbon dioxide production were calculated on line every 10 seconds using a standard inert gas dilution technique. Patients were encouraged to exercise to exhaustion. Exercise time and oxygen consumption at peak exercise adjusted for total body weight (peak V02 in ml/kg/min) were measured as an index of the exercise capacity.
Assessment of quadriceps muscle strength (Patients 1 and 2): The subjects were seated in a rigid frame, with the legs hanging freely. An inelastic strap attached the ankle to a pressure transducer. The recording (Multitrace 2, §, Jersey, Channel Islands) from the pressure transducer was used to assess strength and to provide visual feedback to the subject. […] The best of three voluntary contractions on each leg, with a rest period of at least one minute in-between, was taken to represent the maximal voluntary quadriceps muscle strength of the right and left leg, respectively.

renin gene expression = conditions: captopril administration; cited from earlier work
[4] = Re-analysis of SOLVD treatment trial: cardiac cachexia and survival; format: in vivo, human
From the text: The SOLVD treatment study (57) was a randomized, double-blind, and placebo-controlled trial investigating the effects of enaiapril treatment in clinically stable patients with a LVEF of 35% or less and evidence of overt congestive heart failure. The precis e details of study organisation, inclusion criteria, run-in period (2 to 7 days) and stabilization period (14 to 17 days), randomisation, treatment titration and follow-up have been reported previously (57). Based also on data not otherwise available, the results have been re-analysed, restricted to subjects who participated in the SOLVD treatment trial, who had been free of edema at baseline, who had survived for at least 4 months thereafter, who had weight measurements at baseline and from at least one follow-up visit at 4 months or later.
Of the 2082 patients, 1055 patients were randomised to treatment with enalapril (2.5 to 20 mg per pay) and 1027 patients to treatment with placebo. Body weight at baseline and during follow-up were measured per protocol. Body height was not recorded.
Comparison of means between groups was carried out using an unpaired t-test. Comparison of proportions between groups was made by employing the chi-square test. […] To address the question of whether or not ACE inhibitors influence the risk of first occunence of cachexia, the cumulative incidence of cachexia in the two treatment groups was plotted, and analysed employing the log-rank statistic (59). In the analysis of first occunence of cardiac cachexia, at any given follow-up visit, absence of information on cardiac cachexia (i.e. weight not documented at this visit) is treated as censored. The effect of cardiac cachexia on survival is assessed using Cox proportional hazard analysis (58). For these analyses, cardiac cachexia is treated as a time-dependent covariate. The assessment of cardiac cachexia at 4, 8, and 12 months was used in the analysis. These are the time points in the follow-up period with relatively high proportion of complete information on cachexia status.
The primary analysis was intention-to-treat. Statistical significance is claimed at a computed p-value <0.05 (two-sided testing). Estimates of effects are provided along with their 95% confidence intervals. Results are adjusted for a priori identified prognostic factors such as age, gender, NYHA functional class, LVEF (up to or more than 25%), and treatment status (enalapril vs placebo, in the case of assessing the effect of cardiac cachexia on survival).

rat cardiomyocytes [5] = assay: Mitochondrial membrane potential (ΔΨm) by JC-1 flow cytometry; format: cell-based; conditions: 1 μM
From the text: (§1) It is based on observation of the potential difference (ΔΨm) across the inner mitochondrial membrane that is generated by the extrusion of protons to the outside of the mitochondrion during the transport of electrons from electron-carrying coenzymes to molecular oxygen. Part of the energy stored in ΔΨm is utilised to support the synthesis of most of the ATP derived from aerobic metabolism. Thus, ΔΨm is an indicator of the energisation state of the mitochondrion, and also of the efficiency of oxygen utilisation to generate chemical energy. To investigate whether some of the therapeutic properties of ACE inhibitors could be accounted for by an increase in ΔΨm, this parameter was examined in rat cardiomyocytes, following pre-treatment with the ACE inhibitor lisinopril.
More particularly, cardiomyocytes were isolated from new-born Sprague-Dawley rats hearts and maintained in 30 mm tissue culture dishes in the presence of DMEM supplemented with 1% foetal calf serum at 37° C. in a humidified 5% CO2 atmosphere. For experiments, cultures were treated with 1 μM lisinopril or with an equivalent amount of vehicle for various lengths of time, before analysis of ΔΨm.
To measure ΔΨm, the mitochondrial-specific probes rhodamine 123 (Rh123) and 5,5′,6,6′-tetrachloro-1,1′,3,3′-tetraethylbenzimidazolocarbocyanine iodide (JC-1) were used. Cells were incubated for 15 min with 2.5 μM Rh123 or for 10 min with […] JC-1 (Molecular Probes) in fresh culture medium, at 37° C. and 5% CO2. […] Data were acquired and analysed using Lysis II software (Becton Dickinson).
JC-1 is a more reliable and sensitive fluorescent probe for assessing changes in ΔΨm. At low concentrations, JC-1 exists mainly in a monomeric form which is characterised by the emission of green fluorescence. […] These aggregates are characterized by the emission of red fluorescence. Thus, an increase in the red to green fluorescence ratio indicates an increase in ΔΨm. […] Thus, the ratio of red to green fluorescence (□) increased as the time of incubation with lisinopril progressed.

rat cardiomyocytes [6] = assay: Mitochondrial membrane potential (ΔΨm) by Rh123 flow cytometry; format: cell-based; conditions: 1 μM, pre-treatment for 36 hours
From the text: as §1
More particularly, cardiomyocytes were isolated from new-born Sprague-Dawley rats hearts and maintained in 30 mm tissue culture dishes in the presence of DMEM supplemented with 1% foetal calf serum at 37° C. in a humidified 5% CO2 atmosphere. […]
To measure ΔΨm, the mitochondrial-specific probes rhodamine 123 (Rh123) and 5,5′,6,6′-tetrachloro-1,1′,3,3′-tetraethylbenzimidazolocarbocyanine iodide (JC-1) were used. […] Data were acquired and analysed using Lysis II software (Becton Dickinson).

[7] = 2.5 mg; cited from earlier work
[8] = low dose, humans; cited from earlier work
[9] = 5 μg/kg/day, rats; cited from earlier work
[10] = rat hind limb; cited from earlier work
[11] = 50 mg once daily, both patients

## CCCCc1nc(Cl)c(CO)n1Cc1ccc(-c2ccccc2-c2nn[nH]n2)cc1 [Losartan]
[1]; DD genotype
  gain in VO2 max at anaerobic threshold: -1.8 ± 6.3 mL/min
[1]; II genotype
  gain in VO2 max at anaerobic threshold: 0.3 ± 6.3 mL/min
[2]
  insulin sensitivity: improves insulin sensitivity
[3]; [11]
  exercise capacity (exercise time, peak VO2): improved
  side-effects of treatment: No side-effects of treatment were observed
[3]; 50 mg once daily, both patients, both legs
  quadriceps muscle strength: improved
[3]; 50 mg once daily, both patients, follow-up 126 and 83 days
  improvement in NYHA symptom class: 1 NYHA symptom class
[3]; patient 1, 50 mg once daily, 126 days, lean and fat tissue gain
  weight gain: 4.6 kg
[3]; patient 2, 50 mg once daily, 83 days
  weight course: stopping the process of weight loss

## C[C@H](CS)C(=O)N1CCC[C@H]1C(=O)O [captopril]
Renin gene expression
  increase in liver renin gene expression: 3 fold

## CCOC(=O)[C@H](CCc1ccccc1)N[C@@H](C)C(=O)N1CCC[C@H]1C(=O)O [enalapril]
[4]; 2.5 to 20 mg per day vs placebo, CHF patients
  risk of developing cardiac cachexia, RR (crude effect of treatment allocation): 0.81
[4]; enalapril group
  patients with weight loss of at least 7.5% with subsequently recorded weights equal to or higher than baseline: 6 patients
[4]; independent of age, gender, NYHA class, LVEF, p<0.01
  effect on survival: significantly beneficial effect on survival; also recorded: reduced the frequency of the risk of death
[4]; overall
  reduction of the risk of developing cardiac cachexia: 19%

## NCCCC[C@H](N[C@@H](CCc1ccccc1)C(=O)O)C(=O)N1CCC[C@H]1C(=O)O [lisinopril]
Rat cardiomyocytes [5]; various lengths of time
  green fluorescence (JC-1 monomer): corresponding decrease
  red fluorescence (JC-1 aggregates): progressive increase
Rat cardiomyocytes [5]; with time of incubation
  ratio of red to green fluorescence: increased
Rat cardiomyocytes [6]
  increase in Rh123 fluorescence: about 30%

## CCOC(=O)[C@H](CCc1ccccc1)N[C@@H](C)C(=O)N1[C@H](C(=O)O)C[C@@H]2CCC[C@@H]21 [ramipril]
[7]
  frequency of first-dose fall in blood pressure: same frequency as is seen with placebo
[8]
  effect on systemic blood pressure: without any recordable effect on systemic blood pressure
[9]
  effect on systolic blood pressure: no effect on systolic blood pressure

## angiotensin II (DRVYIHPF; Angiotensin-2; UniProt P01019 25-32, looked up) [ATII]
[10]
  O2 usage and twitch tension: increases
